Experimental findings from US9580433B2 (Janssen Pharmaceutica NV, priority 2013, dated 2017) are described below.

The subject of experiment [1] is Abeta total produced and secreted by SKNBE2 cells (BACE1). Briefly: BACE1 cellular αLisa assay in SKNBE2 cells, Abeta total. Format: cell-based, human. The following applies: Homo sapiens, SKNBE2, 18 h, SKNBE2 cells expressing hAPP695, 18 hours incubation; read-out: Cellular αLisa assay in SKNBE2 cells Abetatotal pIC50 (converted). Here is the method:
(§1) BACE1 Cellular αLisa Assay in SKNBE2 Cells
(§2) In two αLisa assays the levels of Abeta total and Abeta 1-42 produced and secreted into the medium of human neuroblastoma SKNBE2 cells are quantified. The assay is based on the human neuroblastoma SKNBE2 expressing the wild type Amyloid Precursor Protein (hAPP695). The compounds are diluted and added to these cells, incubated for 18 hours and then measurements of Abeta 1-42 and Abeta total are taken. Abeta total and Abeta 1-42 are measured by sandwich αLisa. αLisa is a sandwich assay using biotinylated antibody AbN/25 attached to streptavidin coated beads and antibody Ab4G8 or cAb42/26 conjugated acceptor beads for the detection of Abeta total and Abeta 1-42 respectively. In the presence of Abeta total or Abeta 1-42, the beads come into close proximity. The excitation of the donor beads provokes the release of singlet oxygen molecules that trigger a cascade of energy transfer in the acceptor beads, resulting in light emission. Light emission is measured after 1 hour incubation (excitation at […] and emission at 615 nm).
(§3) A best-fit curve is fitted by a minimum sum of squares method to the plot of % Controlmin versus compound concentration.

Another experiment concerns the target T1, BACE1 (Homo sapiens, UniProt P56817).
T1 construct: recombinant BACE1 protein in a final concentration of 0.04 g/ml
Kind of experiment: BACE1 biochemical FRET based assay. The following applies: recombinant BACE1, 450 min, pH 5.0; read-out: BACE1 Biochemical FRET based assay pIC50 (converted).

The target in the next experiment is T2, BACE2 (Homo sapiens, UniProt Q9Y5Z0).
T2 construct: recombinant BACE2 protein in a final concentration of 0.4 μg/ml
T2 sequence (Q9Y5Z0 63-518): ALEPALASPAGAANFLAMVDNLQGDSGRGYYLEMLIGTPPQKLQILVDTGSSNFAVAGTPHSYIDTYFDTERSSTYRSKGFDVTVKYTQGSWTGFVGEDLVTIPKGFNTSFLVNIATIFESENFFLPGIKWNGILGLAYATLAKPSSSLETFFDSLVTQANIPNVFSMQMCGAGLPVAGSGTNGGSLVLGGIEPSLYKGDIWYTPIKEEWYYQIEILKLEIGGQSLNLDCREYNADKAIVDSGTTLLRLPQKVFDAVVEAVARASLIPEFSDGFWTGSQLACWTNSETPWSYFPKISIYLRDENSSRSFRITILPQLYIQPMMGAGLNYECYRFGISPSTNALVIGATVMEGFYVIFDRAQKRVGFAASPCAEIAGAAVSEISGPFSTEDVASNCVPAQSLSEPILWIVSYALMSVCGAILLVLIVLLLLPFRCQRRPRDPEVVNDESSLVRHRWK
Briefly: BACE2 biochemical FRET based assay. The note with it: recombinant BACE2, 450 min, pH 5.0; read-out: BACE2 Biochemical FRET based assay pIC50 (converted).

Experiment [2] relates to brain levels of soluble Aβ42, Aβ40. Briefly: In vivo Aβ lowering, brain levels of soluble Aβ by MSD electrochemiluminescence. More on the design: species or system mouse. The following applies: 4 h after administration, untreated control set at 100. The text has this:
To determine whether acute administration of an Aβ lowering agent would reduce Aβ levels in vivo, non-transgenic rodents, e.g. mice or rats were used. Animals treated with the Aβ lowering agent were examined and compared to those untreated or treated with vehicle and brain levels of soluble Aβ42, Aβ40, Aβ38, and Aβ37 were quantitated by Meso Scale Discovery's (MSD) electrochemiluminescence detection technology. Treatment periods varied from hours (h) to days and were adjusted based on the results of the Aβ lowering once a time course of onset of effect could be established.
A typical protocol for measuring Aβ lowering in vivo is shown but it is only one of many variations that could be used to optimize the levels of detectable Aβ. For example, Aβ lowering compounds were formulated in 20% of Captisol® (a sulfo-butyl ether of β-cyclodextrin) in water or 20% hydroxypropyl 3 cyclodextrin. The Aβ lowering agents were administered as a single oral dose or by any acceptable route of administration to overnight fasted animals. After 4 h, the animals were sacrificed and Aβ levels were analysed.
Blood was collected by decapitation and exsanguinations in EDTA-treated collection tubes. Blood was centrifuged at 1900 g for 10 minutes (min) at 4° C. and the plasma recovered and flash frozen for later analysis. The brain was removed from the cranium and hindbrain. The cerebellum was removed and the left and right hemisphere were separated. The left hemisphere was stored at −18° C. for quantitative analysis of test compound levels. The right hemisphere was rinsed with phosphate-buffered saline (PBS) buffer and immediately frozen on dry ice and stored at −80° C. until homogenization for biochemical assays.
Mouse brains from non-transgenic animals were resuspended in 8 volumes of 0.4% DEA (diethylamine)/50 mM NaCl containing protease inhibitors (Roche-11873580001 or 04693159001) per gram of tissue, e.g. for 0.158 g brain, add 1.264 ml of 0.4% DEA. All samples were homogenized in the FastPrep-24 system (MP Biomedicals) using lysing matrix D (MPBio #6913-100) at 6 m/s for 20 seconds. […] Nine parts of supernatant were neutralized with 1 part 0.5 M Tris-HCl pH 6.8 and used to quantify Aβ.
To quantify the amount of Aβ42, Aβ40, Aβ38, and Aβ37 in the soluble fraction of the brain homogenates, simultaneous specific detection of Aβ42, Aβ40, Aβ38, and Aβ37 was performed using MSD's electro-chemiluminescence multiplex detection technology. […] Following this incubation and subsequent wash steps the assay was finished by adding read buffer according to the manufacturer's instructions (Meso Scale Discovery, Gaithersburg, Md.).
The SULFO-TAG emits light upon electrochemical stimulation initiated at the electrode. MSD Sector instrument SI6000 was used for signal read-out. […]

In experiment [3] the test system is Abeta 1-42 produced and secreted by SKNBE2 cells (BACE1). Kind of experiment: BACE1 cellular αLisa assay in SKNBE2 cells, Abeta 1-42. The note with it: Homo sapiens, SKNBE2, 18 h, SKNBE2 cells expressing hAPP695, 18 hours incubation; read-out: Cellular αLisa assay in SKNBE2 cells Abeta 42 pIC50 (converted). Format: cell-based, human. Here is the method:
as §1, §2, §3

T1 sequence (P56817 46-501): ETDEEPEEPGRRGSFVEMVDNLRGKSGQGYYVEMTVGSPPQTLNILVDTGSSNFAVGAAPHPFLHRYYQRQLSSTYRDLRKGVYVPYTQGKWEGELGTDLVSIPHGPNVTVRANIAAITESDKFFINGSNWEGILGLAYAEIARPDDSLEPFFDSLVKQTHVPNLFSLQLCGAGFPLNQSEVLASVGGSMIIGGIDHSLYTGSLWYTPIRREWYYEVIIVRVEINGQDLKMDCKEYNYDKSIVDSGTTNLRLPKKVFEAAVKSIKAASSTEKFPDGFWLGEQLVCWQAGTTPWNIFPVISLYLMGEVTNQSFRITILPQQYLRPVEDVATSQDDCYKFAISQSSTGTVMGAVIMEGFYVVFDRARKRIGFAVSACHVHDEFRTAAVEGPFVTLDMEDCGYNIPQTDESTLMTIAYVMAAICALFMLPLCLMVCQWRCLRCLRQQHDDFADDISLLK

`Cc1nc(C(=O)Nc2ccc(F)c([C@]3(C)Cn4cncc4C(N)=N3)c2)co1` [Compound 4, N-{3-[(6R)-8-Amino-6-methyl-5,6-dihydroimidazo[1,5-a]pyrazin-6-yl]-4-fluorophenyl}-2-methyl-1,3-oxazole-4-carboxamide]: the IC50 is 24 nM in experiment [1], 11.7 nM at BACE1, 6.46 nM at BACE2 and 26.3 nM in experiment [3]. Moreover, in experiment [2] (dose 10, p.o.), the “Aβ40 (% vs Ctrl)_Mean” value is listed as 111 % vs Ctrl. In addition, the “Aβ42 (% vs Ctrl)_Mean” value in experiment [2] (dose 10, p.o.) stood at 108 % vs Ctrl.

`C[C@@]1(c2cc(NC(=O)c3ccc(C#N)cn3)ccc2F)Cn2cncc2C(N)=N1` [Compound 5, N-{3-[(6R)-8-Amino-6-methyl-5,6-dihydroimidazo[1,5-a]pyrazin-6-yl]-4-fluorophenyl}-5-cyanopyridine-2-carboxamide]: the IC50 in experiment [1] is 4.79 nM; in experiment [3], 5.25 nM. The “Aβ40 (% vs Ctrl)_Mean” value in experiment [2] (dose 10, s.c.) came out at 108 % vs Ctrl. The “Aβ42 (% vs Ctrl)_Mean” value in experiment [2] (dose 10, s.c.) came to 100 % vs Ctrl.
